Reference: EP1649856A2, “Use of pimecrolimus for selective immunomodulation” (Novartis AG, priority 2001, dated 2002)
Entries after “also recorded” stand apart in the source; their conditions may differ.

What was measured:
in vivo = assay: in vivo; set-up: species or system rats
Method: In another study designed to explore the differences between pimecrolimus and FK506 and to determine whether these differences might be associated with a different tissue distribution, the exposure to pimecrolimus and FK506 in various organs after oral administration were measured. Animals received 2 oral doses of 25 mg/kg in an interval of 2 hours. […] Pimecrolimus was found consistently to have a higher skinlblood concentration ratio than FK506 (2 hours: 7.3 vs. 2.8; 6 hours: 13 vs. 1.6; 24 hours: 36 vs. 6.0). The AUC0-24h in skin calculated for pimecrolimus was twice as high as with FK506.
These distribution characteristics are relevant not only for oral, but also for topical application, as the compound enters systemic circulation after permeation through the skin.

[1] = system: eosinophil influx into the lungs; assay: Aeroallergen induced eosinophil influx into the lungs of sensitized mice; type: in vivo; conditions: oral administration
Excerpt: Direct evidence on the efficacy on pimecrolimus in asthma is provided by studies showing the effect on lung eosinophilia rats. One study looked at the inhibitory effect of pimecrolimus on the aeroallergen induced eosinophil influx into the lungs of sensitized mice.

pulmonary eosinophilia = assay: Antigen-induced pulmonary eosinophilia in actively sensitized rats; type: in vivo, Brown Norway Rats; conditions: given orally as a microemulsion or dissolved in Neoral placebo
Excerpt: Another study looked at the effects of oral administration of pimecrolimus on antigen-induced pulmonary eosinophilia in actively sensitized Brown Norway Rats.

[2] = system: allergic contact dermatitis (ACD); assay: Rat ACD model; type: in vivo
[3] = Pharmacokinetics after multiple oral administrations to psoriatic patients for 28 days; type: in vivo, human
Method: Table 4. Summary of Cmax and AUCτ Following Multiple Oral Administrations of Pimecrolimus to Psoriatic Patients for 28 Days
In this study pimecrolimus was rapidly absorbed with a median tmax across all the dose groups and collection days of between 0.8 and 2.0 hours. […] There was no effect of age or weight on the apparent clearance of pimecrolimus.

[4] = type: in vitro ADME, human
Excerpt: Pimecrolimus, when applied topically, permeates less through human (and animal) skin than, for example, FK506 and corticosteroids by factors of 9 and 60-120, respectively, indicating a lower potential to enter the systemic circulation and thus to exert systemic side effects. As is well-known, glucocorticoids are non-selective agents and are therefore associated with many systemic actions and a wide variety of side effects, whether applied topically or systemically. This is in contrast to pimecrolimus.

[5] = system: systemic immune responses; assay: Models of systemic immunosuppression (graft-versus-host reaction, antibody formation to sheep red blood cells, kidney transplantation); type: in vivo, rats; conditions: transplantation and vaccination models
Excerpt: Pimecrolimus (also called ASM981 and ELIDEL®) is an ascomycin macrolactam-derivative with anti-inflammatory properties, chemical name is 33-epichloro-33-desoxy-ascomycin. Pimecrolimus is an ascomycin macrolactam-derivative developed originally for topical and oral treatment of inflammatory skin diseases such as atopic dermatitis and psoriasis. Pimecrolimus binds to macrophilin-12 and inhibits the Ca-dependent phosphatase calcineurin. As a consequence, it inhibits T cell activation and blocks the transcription and release of both Th1 and Th2 inflammatory cytokines. […] Tachyphylaxis has not been observed.

[6] = Clinical study of oral pimecrolimus in psoriasis patients (efficacy and safety)
Method: A clinical study was initiated with an oral formulation of pimecrolimus to treat psoriatic patients. Pimecrolimus was evaluated as treatment for psoriasis using an oral dose of 60 mg (30 mg b.i.d) during a 4-week clinical study. The cohort included 10 patients; 8 received the treatment and 2 received a placebo.
The dose used in the study was 60 mg/day, given as 30 mg b.i.d. To make this dose the 20 mg tablets were cut in half using a special cutter (Tablettenteiler NR.96) so as to obtain 30 mg of pimecrolimus or a matched amount of placebo.

[7] = 20 mg b.i.d. oral, Day 13, Mean ± SD, 18720 min
[8] = 20 mg b.i.d. oral, Day 28, Mean ± SD, 40320 min
[9] = human, blood, 5 mg q.d. oral, Day 1, Mean ± SD
[10] = human, blood, 5 mg q.d. oral, Day 13, Mean ± SD
[11] = human, blood, 5 mg q.d. oral, Day 28, Mean ± SD
[12] = human, blood, 10 mg q.d. oral, Day 1, Mean ± SD
[13] = human, blood, 10 mg q.d. oral, Day 28, Mean ± SD
[14] = human, blood, 20 mg q.d. oral, Day 13, Mean ± SD
[15] = human, blood, 20 mg q.d. oral, Day 28, Mean ± SD
[16] = human, blood, 30 mg b.i.d. oral, Day 1, Mean ± SD
[17] = human, blood, 30 mg b.i.d. oral, Day 13, Mean ± SD
[18] = human, blood, 30 mg b.i.d. oral, Day 28, Mean ± SD

For `CC[C@@H]1/C=C(\C)C[C@H](C)C[C@H](OC)[C@H]2O[C@@](O)(C(=O)C(=O)N3CCCC[C@H]3C(=O)O[C@H](/C(C)=C/[C@@H]3CC[C@H](Cl)[C@H](OC)C3)[C@H](C)[C@@H](O)CC1=O)[C@H](C)C[C@@H]2OC` [pimecrolimus, 33-epichloro-33-desoxy-ascomycin], the “AUC0-24h in skin compared with FK506” value (in vivo; 2 oral doses of 25 mg/kg) was “twice as high”, the “exposure in all other tissues, including blood, lymph nodes and kidney, compared with FK506” value (in vivo; 2 oral doses of 25 mg/kg) was “lower” and the Kp at 2 h (in vivo; rat, skin, 2 oral doses of 25 mg/kg in an interval of 2 hours, 2 hours after the last dosing, read-out: skinlblood concentration ratio) was 7.3. The Kp at 6 h (in vivo; rat, skin, 2 oral doses of 25 mg/kg in an interval of 2 hours, 6 hours after the last dosing, read-out: skinlblood concentration ratio) was 13, the Kp at 24 h (in vivo; rat, skin, 2 oral doses of 25 mg/kg in an interval of 2 hours, 24 hours after the last dosing, read-out: skinlblood concentration ratio) was 36 and the “eosinophil count in the lung and eosinophil peroxidase activity” value [1] was “able to reduce”. For the same compound, the antigen-induced pulmonary eosinophilia (pulmonary eosinophilia) was “effective”, the “efficacy compared with FK506” value ([2]; oral, same doses, rat ACD model) was “superior” and the “efficacy relative to oral CyA” value ([2]; rat ACD (12.5 mg/kg pimecrolimus similar to 50 mg/kg CyA)) was 4 fold. For the same compound, the “AUCτ,b” value ([3]; 20 mg b.i.d. oral, Day 1, Mean ± SD, 1440 min) was 139.9 ± 39.2 ng·h/mL, the “AUCτ,b” value [3, 7] was 259.6 ± 122.6 ng·h/mL and the “Cmax,b” value [3, 7] was 54.7 ± 36.3 ng/mL. The “AUCτ,b” value [3, 8] was 229.5 ± 90.9 ng·h/mL, the “Cmax,b” value [3, 8] was 41.7 ± 16.5 ng/mL and the “mean AUC at steady-state over 24 hours” value ([3]; 30 mg b.i.d., day 28, calculated assuming identical AUCτ for morning and evening doses) was ~562 ng·h/mL. The AUC at 24 h ([3]; human, blood, po, 30 mg b.i.d., day 13, calculated assuming identical AUCτ for morning and evening doses, read-out: mean AUC at steady-state over 24 hours) was ~590 ng·h/mL, the Tmax ([3]; human, blood, po, across all the dose groups and collection days, read-out: median tmax) was 0.8 to 2 h and the concentration at 504 h ([3]; human, blood, po, day 21 of the 30 mg BID dose schedule, read-out: highest median blood trough concentration) was 18 ng/mL. The half-life ([3]; human, blood, po, recorded after the final dose, read-out: terminal half-life) was 2.08 to 4.17 days, the AUC tau at 24 h [3, 9] was 23.3 ± 13 ng·h/mL and the Cmax at 24 h [3, 9] was 8.7 ± 2.3 ng/mL. For the same compound, the AUC tau at 312 h [3, 10] was 44.5 ± 18.2 ng·h/mL, the Cmax at 312 h [3, 10] was 9.7 ± 2.5 ng/mL and the AUC tau at 672 h [3, 11] was 35.5 ± 15.8 ng·h/mL. It also gave a Cmax at 672 h [3, 11] of 9.9 ± 4.8 ng/mL, an AUC tau at 24 h [3, 12] of 80.6 ± 31.4 ng·h/mL and a Cmax at 24 h [3, 12] of 25.9 ± 8.5 ng/mL. The Cmax at 312 h ([3]; human, blood, 10 mg q.d. oral, Day 13, Mean ± SD) was 21.8 ± 7.9 ng/mL, the AUC tau at 672 h [3, 13] was 90.9 ± 35.4 ng·h/mL and the Cmax at 672 h [3, 13] was 24 ± 9.2 ng/mL. For the same compound, the Cmax at 24 h ([3]; human, blood, 20 mg b.i.d. oral, Day 1, Mean ± SD) was 41.3 ± 16 ng/mL, the AUC tau at 24 h ([3]; human, blood, 20 mg q.d. oral, Day 1, Mean ± SD) was 173 ± 56 ng·h/mL and the AUC tau at 312 h [3, 14] was 253 ± 40.1 ng·h/mL. The Cmax at 312 h [3, 14] was 55.3 ± 21.4 ng/mL, the AUC tau at 672 h [3, 15] was 258 ± 65.9 ng·h/mL and the Cmax at 672 h [3, 15] was 58.3 ± 25.4 ng/mL. It also gave an AUC tau at 24 h [3, 16] of 206 ± 64 ng·h/mL, a Cmax at 24 h [3, 16] of 49.1 ± 21.6 ng/mL and an AUC tau at 312 h [3, 17] of 295 ± 60.1 ng·h/mL. It also gave a Cmax at 312 h [3, 17] of 54.5 ± 27 ng/mL, an AUC tau at 672 h [3, 18] of 281 ± 32.8 ng·h/mL and a Cmax at 672 h [3, 18] of 41.1 ± 8.4 ng/mL. For the same compound, the AUC(0-t) at 24 h ([3]; human, blood, psoriatic patients, oral, read-out: AUC(0-24) associated with a significant clinical response in the target epithelial tissue) was ≥ 400 ng·h/mL, the “Trough concentrations associated with a significant clinical response in the target epithelial tissue” value ([3]; human, in vivo, po) was ≥ 7 ng/mL and the “factor by which it permeates less through skin than FK506” value [4] was 9. The “factor by which it permeates less through skin than corticosteroids” value [4] was 60-120, the “systemic immunosuppressive effect compared to CyA and FK506” value [5] was “only a low potential to impair systemic immune responses; also recorded: minimal immunosuppressive effects” and the “clinical effect on psoriasis” value ([6]; oral 60 mg (30 mg b.i.d), 4-week study, 8 treated patients) was “reduction of psoriasis”. For the same compound, the tolerability in man ([6]; oral dosing up to 60 mg (or 30 mg b.i.d.) over 28 days) was “well-tolerated”.
